The values that follow come from ChEMBL document CHEMBL1201862, “PubChem BioAssay data set” (2004).

SMILES strings stand for the structures.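 How tested: cells in 96-well plates exposed to compound for 48 hours at five concentrations. At the GI50, growth is halved.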 Active and inactive are the calls of the source. Cut-off read from the data, not from the text of the source: active = GI50 up to about 1.1 µM and inactive = higher. Some results are limits rather than exact numbers.

Some test systems named below: SNB-75; MOLT-4; SK-MEL-28; SW-620; Hs-578T; 786-0; SF-539; SR; HT-29; A549; CAKI-1; UACC-62; UACC-257; Malme-3M; CCRF-CEM; RXF 393; COLO 205; SN12C; HCT-15; A498.
Common to all, as to assay: inhibition of tumour cell growth, NCI panel, 48 h

In the case of `O=CNc1ccccc1OCCOc1ccccc1NC=O`, the GI50 in the assay on SNB-75, in the assay with MOLT-4, in the assay on SK-MEL-28, in the assay on SW-620, with Hs-578T and in the assay on 786-0 was > 100 µM (inactive) in each case. Moreover, the GI50 in the assay with SF-539, in the assay with SR, in the assay on HT-29, in the assay with A549, in the assay on CAKI-1 and in the assay on UACC-62 was > 100 µM (inactive) throughout. The GI50 in the assay with UACC-257, in the assay with Malme-3M, with CCRF-CEM, in the assay on RXF 393, in the assay on COLO 205 and in the assay with SN12C was > 100 µM (inactive) each time. The GI50 with HCT-15 was greater than 100 µM; in the assay on A498 it was > 100 µM (inactive).
Consider `O=C1CN(c2cccc(Cl)c2)C(=O)CN1CCN1CC(=O)N(c2cccc(Cl)c2)CC1=O`, for which the GI50 with SNB-75, in the assay with MOLT-4, in the assay on SK-MEL-28, in the assay with SW-620, in the assay on Hs-578T and in the assay on 786-0 was > 100 µM (inactive) in each case. The GI50 with SF-539, with SR, in the assay with HT-29, in the assay on A549, with CAKI-1 and in the assay with UACC-62 was > 100 µM (inactive) throughout. For the same molecule, the GI50 in the assay with UACC-257, with Malme-3M, with CCRF-CEM, with RXF 393, in the assay on COLO 205 and in the assay with SN12C was > 100 µM (inactive) each time. The GI50 in the assay on HCT-15 was greater than 100 µM; in the assay with A498 it was > 100 µM (inactive).
